# Experimental data from patent US9708247B2, “Modulators of the eIF2alpha pathway” (The Regents of the University of California, priority 2013, dated 2017).
# Tested on: ATF4 luciferase reporter
# Assay: ATF4 luciferase reporter assay (Cell-luc) in HEK293T cells
# Format: cell-based, human
# Settings: ATF4-luciferase reporter
# Description: FIGS. 1A-1C. […]
# To identify inhibitors of PERK signaling, we engineered a reporter that allows monitoring of PERK activation in living cells. To this end, we constructed a retroviral vector containing the open-reading frame of firefly luciferase fused to the 5′UTR of ATF4 mRNA (FIG. 1A), which contains two short open-reading frames (uORFs) that control ATF4 translation in a stress-dependent manner. After infection, we established a HEK293T cell line harboring the stably integrated reporter. […] This format was used to screen 106,281 compounds covering a wide chemical space. We identified 460 hits (0.43%) (FIG. 1C), which were further validated in an 8-point dose-response assay using the same reporter. We further triaged the compounds by discarding inhibitors that also affected the IRE1 branch of the UPR using an XBP1-luciferase splicing reporter. […] We next used an orthogonal secondary screen that employed a different reporter (bi-cistronic ATF4-dGFPIRES-mCherry) stably integrated into a different cell line (U20S cells). The read-out of this latter screen was microscopy-based, which allowed us to simultaneously assess acute toxicity by cell counting, further reducing the number of viable hits to 77. As a tertiary screen, we tested compounds for their ability to inhibit ER stress-elicited induction of endogenous ATF4 by Western blot analysis. Twenty-eight compounds passed this test and were analyzed further.
# ATF4 reporters were constructed by fusing the human full-length ATF4 5′-UTR (NCBI Accession BC022088.2) in front of the firefly luciferase (FLuc) or a destabilized eGFP (dEGFP) coding sequences lacking the initiator methionine.
# The ATF4-FLuc reporter was generated by cloning a PCR-product containing the ATF4 full-length 5′-UTR (from +1 position a the transcription start site down to one nucleotide after the terminator codon of the second uORF) flanked by KpnI/XhoI and BglII sites at the 5′ and 3′ ends, respectively, into the KpnI-BglII sites of pCAX-F-XBP1-Luc. The resulting construct, pCAX-ATF4-FLuc, was then digested with BamHI, blunted with T4 DNA polymerase, and then digested with XhoI. The resulting fragment was then subcloned into the retroviral expression vector pLPCX (Clontech) after digesting it with HindIII, blunting with T4 DNA polymerase and then digesting with XhoI to generate pLPCX-ATF4-FLuc (DAA-312). DAA-312 was used to produce recombinant retroviruses using standard methods and the resulting viral supernatant was used to transduce HEK293T cells, which were then subsequently selected with puromycin to generate a stable cell line employed in the primary screen.
# HEK293T cells carrying the ATF4 luciferase reporter were plated on poly-lysine coated 384 well plates (Greiner) at 30,000 cells per well. […] Luminescence was measured using One Glo (Promega) as specified by the manufacturer. […] Thus, these were considered unique to the PERK branch and were cherry-picked for further analysis.
row,Structure (SMILES),potency of trans-ISRIB relative to cis-ISRIB [fold]
1,"O=C(COc1ccc(Cl)cc1)N[C@H]1CC[C@H](NC(=O)COc2ccc(Cl)cc2)CC1 [Trans-ISRIB, 2-(4-Chlorophenoxy)-N-[(1r, 4r)-4-[2-(4-chlorophenoxy)acetamido]cyclohexyl]acetamide]",100

# Same assay, conditions: ATF4 luciferase reporter, HEK293T cells; read-out: IC50 (nM) Cell-luc
row,Structure (SMILES),IC50 [nM]
1,C#CCN(C(=O)COc1ccc(Cl)cc1)[C@H]1CC[C@H](NC(=O)COc2ccc(Cl)cc2)CC1 [755854.1],2700
2,C#CCN(C(=O)COc1ccc(Cl)cc1)[C@H]1CC[C@H](NC(=O)COc2ccc(Cl)cc2)CC1 [755854.2],440
3,C#CCN(C(=O)COc1ccc(Cl)cc1)[C@H]1CC[C@H](NC(=O)COc2ccc(Cl)cc2)CC1 [755854.3],100
4,C#CCN(C(=O)COc1ccc(Cl)cc1)[C@H]1CC[C@H](NC(=O)COc2ccc(Cl)cc2)CC1 [755854.4],64
5,N=C(COc1ccc(Cl)cc1)N[C@H]1CC[C@H](NC(=O)COc2ccc(Cl)cc2)CC1 [757264-L3],60
6,N=C(COc1ccc(Cl)cc1)N[C@H]1CC[C@H](NC(=O)COc2ccc(Cl)cc2)CC1 [757264.1],100
7,N=C(COc1ccc(Cl)cc1)N[C@H]1CC[C@H](NC(=O)COc2ccc(Cl)cc2)CC1 [757264.2],34
8,O=C(COc1ccc([N+](=O)[O-])cc1)N[C@H]1CC[C@H](NC(=O)COc2ccc([N+](=O)[O-])cc2)CC1 [compound 757130],> 10000
9,O=C(COc1ccc(Cl)cc1)N[C@H]1CC[C@H](NC(=O)COc2ccc(Cl)cc2[N+](=O)[O-])CC1 [compound 843987],75

# Same assay, conditions: Homo sapiens, HEK-293T, ATF4 luciferase reporter, HEK293T cells; read-out: IC50 (nM) Cell-luc
row,Structure (SMILES),IC50 [nM]
1,O=C(COc1ccc(Cl)cc1)N[C@H]1CC[C@H](NC(=O)COc2ccc(Cl)cc2)CC1 [750213.2],3
2,O=C(COc1ccc(Cl)cc1)Nc1ccc(NC(=O)COc2ccc(Cl)cc2)cc1 [compound 102509],53
3,COc1ccc(OCC(=O)N[C@H]2CC[C@H](NC(=O)COc3ccc(Cl)cc3)CC2)cc1 [compound 751591],250
4,O=C(COc1ccc(Cl)cc1)N[C@H]1CC[C@H](NC(=O)COc2ccc(OCc3ccccc3)cc2)CC1 [compound 751592],> 10000
5,O=C(COc1ccccc1)N[C@H]1CC[C@H](NC(=O)COc2ccc(Cl)cc2)CC1 [compound 751593],384
6,O=C(COc1ccc(Cl)cc1)N[C@H]1CC[C@H](NC(=O)COc2ccc(Cl)cc2Cl)CC1 [compound 751594],69
7,Cc1ccc(CC(=O)N[C@H]2CC[C@H](NC(=O)COc3ccc(Cl)cc3)CC2)cc1 [compound 751595],> 10000
8,O=C(COc1ccc(Cl)cc1)N[C@H]1CC[C@H](NC(=O)c2ccc(Cl)cc2)CC1 [compound 751596],> 10000
9,O=C(COc1ccc(O)cc1)N[C@H]1CC[C@H](NC(=O)COc2ccc(Cl)cc2)CC1 [compound 751597],> 10000
10,COc1ccc(OCC(=O)N[C@H]2CC[C@H](NC(=O)COc3ccc(OC)cc3)CC2)cc1 [compound 754123],> 10000
11,O=C(COc1ccc(Cl)cc1)N[C@H]1CC[C@@H](NC(=O)COc2ccc(Cl)cc2Cl)CC1 [compound 754124],> 10000
12,O=C(CCc1ccc(Cl)cc1)N[C@H]1CC[C@H](NC(=O)CCc2ccc(Cl)cc2)CC1 [compound 754125],> 10000
13,Cc1ccc(OCC(=O)N[C@H]2CC[C@H](NC(=O)COc3ccc(C)cc3)CC2)cc1 [compound 754126],327
14,O=C(COc1ccc(C(F)(F)F)cc1)N[C@H]1CC[C@H](NC(=O)COc2ccc(C(F)(F)F)cc2)CC1 [compound 754127],13
15,Cc1ccc(OCC(=O)N[C@H]2CC[C@H](NC(=O)COc3ccc(Cl)cc3)CC2)cc1 [compound 754128],95
16,O=C(COc1ccc(Cl)cc1)N[C@H]1C[C@H](NC(=O)COc2ccc(Cl)cc2)C1 [compound 755855],142
17,O=C(COc1ccc(Cl)cc1)N[C@H]1C[C@@H](NC(=O)COc2ccc(Cl)cc2)C1 [compound 755856],1000
18,N#Cc1ccc(OCC(=O)N[C@H]2CC[C@H](NC(=O)COc3ccc(C#N)cc3)CC2)cc1 [compound 757095],> 10000
19,C[S+]([O-])c1ccc(OCC(=O)N[C@H]2CC[C@H](NC(=O)COc3ccc([S+](C)[O-])cc3)CC2)cc1 (stereo partly shown) [compound 757096],> 10000
20,O=C(COc1ccc(F)cc1)N[C@H]1CC[C@H](NC(=O)COc2ccc(F)cc2)CC1 [compound 757131],270
21,C#C[C@]1(NC(=O)COc2ccc(Cl)cc2)CC[C@@H](NC(=O)COc2ccc(Cl)cc2)CC1 [compound 757132],3000
22,C#C[C@]1(NC(=O)COc2ccc(Cl)cc2)CC[C@H](NC(=O)COc2ccc(Cl)cc2)CC1 [compound 757149],37

row,Structure (SMILES),IC50 [nM]
1,O=C(COc1ccc(F)cc1)N[C@H]1CC[C@H](NC(=O)COc2ccc(Cl)cc2)CC1 [compound 757257],48
2,O=C(COc1ccc(Cl)cc1)N[C@H]1CC[C@H](NC(=O)COc2ccc(C(F)(F)F)cc2)CC1 [compound 757258],10
3,N#Cc1ccc(OCC(=O)N[C@H]2CC[C@H](NC(=O)COc3ccc(Cl)cc3)CC2)cc1 [compound 757259],263
4,C[S+]([O-])c1ccc(OCC(=O)N[C@H]2CC[C@H](NC(=O)COc3ccc(Cl)cc3)CC2)cc1 (stereo partly shown) [compound 757260],> 10000
5,O=C(COc1ccc(Cl)cc1)N[C@H]1CC[C@H](NC(=O)CSc2ccc(Cl)cc2)CC1 [compound 757261],> 10000
6,O=C(COc1ccc(Cl)cc1)N[C@H]1CC[C@H](NC(=O)C[S+]([O-])c2ccc(Cl)cc2)CC1 (stereo partly shown) [compound 757262],> 10000
7,O=C(COc1ccc(Cl)cc1)N[C@H]1CC[C@H](NC(=O)CS(=O)(=O)c2ccc(Cl)cc2)CC1 [compound 757263],> 10000
8,O=C(COc1ccc(Cl)cc1)N[C@H]1CC[C@H](NC(=O)CSc2ccccc2)CC1 [compound 811769],> 10000
9,O=C(COc1ccc(Cl)cc1)N[C@H]1CC[C@H](NC(=O)CSc2ccc(F)cc2)CC1 [compound 811770],900
10,O=C(COc1ccc(Cl)cc1)N[C@H]1C[C@H](NC(=O)CSc2ccc(Cl)cc2)C1 [compound 811771],> 10000
11,O=C(COc1ccc(Cl)cc1)N[C@H]1C[C@H](NC(=O)CSc2ccc(F)cc2)C1 [compound 811772],> 10000
12,O=C(COc1ccc(Cl)cc1)N[C@H]1C[C@H](NC(=O)CSc2ccccc2)C1 [compound 811773],> 10000
13,O=C(CCCC[C@H]1SCC2NC(=O)NC21)NCCOCCOCCOCCn1cc([C@]2(NC(=O)COc3ccc(Cl)cc3)CC[C@H](NC(=O)COc3ccc(Cl)cc3)CC2)nn1 (stereo partly shown) [compound 835087],2700
14,O=C(CNc1ccc(Cl)cc1)N[C@H]1CC[C@H](NC(=O)COc2ccc(Cl)cc2)CC1 [compound 835089],700
15,O=C(COc1ccc(Cl)cc1)N[C@H]1CC[C@H](NCCOc2ccc(Cl)cc2)CC1 [compound 835195],170
16,O=C(COc1ccc(Cl)cc1)N[C@H]1CC[C@H](N(CCOc2ccc(Cl)cc2)CCOc2ccc(Cl)cc2)CC1 [compound 835196],1400
17,N=C(COc1ccc(Cl)cc1)N[C@H]1CC[C@H](N(Cc2cn(CCOCCOCCOCCNC(=O)CCCC[C@@H]3SCC4NC(=O)NC43)nn2)C(=O)COc2ccc(Cl)cc2)CC1 (stereo partly shown) [compound 835197],> 10000
18,CC(=O)c1ccc(OCC(=O)N[C@H]2CC[C@H](NC(=O)COc3ccc(Cl)cc3)CC2)cc1 [compound 843983],> 10000
19,CC(=O)c1cccc(OCC(=O)N[C@H]2CC[C@H](NC(=O)COc3ccc(Cl)cc3)CC2)c1 [compound 843984],1000
20,O=C(COc1ccc(Cl)cc1)NCc1cccc(NC(=O)COc2ccc(Cl)cc2)c1 [compound 873882],> 10000
21,C[C@@H]1NC(=O)N[C@@H]1CCCCCC(=O)NCCOCCOCCOCCn1cc([C@]2(NC(=O)COc3ccc(Cl)cc3)CC[C@H](NC(=O)COc3ccc(Cl)cc3)CC2)nn1 [compound 873883],2600

# Same assay, conditions: cultured HEK293T cells; 2 μg/ml tunicamycin, 7 h; synthesized isomers; read-out: IC50, inhibition of the ATF4-luciferase reporter
row,Structure (SMILES),IC50 [nM]
1,"O=C(COc1ccc(Cl)cc1)N[C@H]1CC[C@H](NC(=O)COc2ccc(Cl)cc2)CC1 [Trans-ISRIB, 2-(4-Chlorophenoxy)-N-[(1r, 4r)-4-[2-(4-chlorophenoxy)acetamido]cyclohexyl]acetamide]",5
2,"O=C(COc1ccc(Cl)cc1)N[C@H]1CC[C@@H](NC(=O)COc2ccc(Cl)cc2)CC1 [cis-ISRIB, 2-(4-chlorophenoxy)-N-[(1s, 4s)-4-[2-(4-chlorophenoxy)acetamido]cyclohexyl]acetamide]",600
